Laboratory results as given in US8877786B2, “Substituted carbamoylmethylamino acetic acid derivatives as novel NEP inhibitors” (Novartis AG, priority 2009, dated 2014).

What follows are compounds tested against recombinant human neutral endopeptidase (NEP, EC 3.4.24.11) (Homo sapiens (Human), UniProt P08473) (assay: in vitro inhibition of recombinant human neutral endopeptidase (fluorescence lifetime assay)). Conditions: recombinant human NEP 7 pM, 1 hour pre-incubation at room temperature, pH 7.4, substrate Cys(PT14)-Arg-Arg-Leu-Trp-OH 0.7 μM, FLT read after 1 hour.
Chain of recombinant human neutral endopeptidase (NEP, EC 3.4.24.11) (P08473 whole entry): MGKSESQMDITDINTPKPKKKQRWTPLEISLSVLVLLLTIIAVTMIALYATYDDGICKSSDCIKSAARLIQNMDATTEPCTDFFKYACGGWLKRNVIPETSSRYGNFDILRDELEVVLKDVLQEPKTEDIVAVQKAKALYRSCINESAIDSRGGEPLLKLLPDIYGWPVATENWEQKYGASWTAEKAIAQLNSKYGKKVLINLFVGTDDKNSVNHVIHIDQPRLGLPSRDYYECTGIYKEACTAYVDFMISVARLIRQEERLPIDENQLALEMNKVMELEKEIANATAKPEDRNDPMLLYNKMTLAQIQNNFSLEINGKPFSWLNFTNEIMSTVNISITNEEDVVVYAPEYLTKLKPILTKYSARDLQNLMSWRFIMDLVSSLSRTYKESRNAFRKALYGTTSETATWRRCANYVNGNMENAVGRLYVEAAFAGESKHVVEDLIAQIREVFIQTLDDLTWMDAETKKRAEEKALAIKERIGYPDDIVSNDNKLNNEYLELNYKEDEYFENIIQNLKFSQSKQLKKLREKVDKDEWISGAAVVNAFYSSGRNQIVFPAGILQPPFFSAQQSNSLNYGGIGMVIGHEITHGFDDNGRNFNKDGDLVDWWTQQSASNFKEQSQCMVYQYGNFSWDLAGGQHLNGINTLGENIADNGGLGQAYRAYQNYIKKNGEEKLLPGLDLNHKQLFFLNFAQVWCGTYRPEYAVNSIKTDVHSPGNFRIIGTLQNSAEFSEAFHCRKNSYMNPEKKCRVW
Format: biochemical
Source text: The activity of a compound according to the present invention can be assessed by the following in vitro & in vivo methods and/or by the following in vitro & in vivo methods well-described in the art. See A fluorescence lifetime-based assay for protease inhibitor profiling on human kallikrein 7 Doering K, Meder G, Hinnenberger M, Woelcke J, Mayr L M, Hassiepen U Biomol Screen.

Row | Compound | IC50
1 | O=C(O)[C@H](CCc1ccccc1)N[C@@H](Cc1ccc(-c2cccc(Cl)c2)cc1)C(=O)Nc1nnn[nH]1 [Example 3-12, (S)-2-[(S)-2-(3′-Chloro-biphenyl-4-yl)-1-(1H-tetrazol-5-ylcarbamoyl)-ethylamino]-4-phenyl-butyric acid] | 0.2 nM
2 | C[C@H](N[C@@H](Cc1ccc(-c2ccccc2)cc1)C(=O)Nc1nnn[nH]1)C(=O)O [Example 3-4, (S)-2-[(S)-2-Biphenyl-4-yl-1-(1H-tetrazol-5-ylcarbamoyl)-ethylamino]-propionic acid] | 11 nM
3 | C[C@H](N[C@@H](Cc1ccc(-c2cc(Cl)ccc2Cl)cc1)C(=O)Nc1nnn[nH]1)C(=O)O [Example 3-2, (S)-2-[(S)-2-(2′,5′-dichloro-biphenyl-4-yl)-1-(1H-tetrazol-5-ylcarbamoyl)-ethylamino]-propionic acid] | 0.3 nM
4 | C[C@H](N[C@@H](Cc1ccc(-c2cccc(Cl)c2)cc1)C(=O)Nc1nnn[nH]1)C(=O)O [Example 3-1, (S)-2-[(S)-2-(3′-chloro-biphenyl-4-yl)-1-(1H-tetrazol-5-ylcarbamoyl)-ethylamino]-propionic acid] | 0.09 nM
5 | C[C@H](N[C@@H](Cc1ccc(-c2cccc(Cl)c2)cc1)C(=O)Nc1cc(O)no1)C(=O)O [Example 3-7, (S)-2-[(S)-2-(3′-Chloro-biphenyl-4-yl)-1-(3-hydroxy-isoxazol-5-ylcarbamoyl)-ethylamino]-propionic acid] | 2.4 nM
